A short description of series [1]: absorption spectrum (maximum absorption wavelength, molar extinction coefficient). Format: physicochemical.
Series [2] in a line: singlet oxygen efficiency test, reference rose bengal. Format: physicochemical.

As for `COCCOCCOCCOCCOCCOCCOCCN1C(=O)CN(C(=O)OCCNc2c(O)c3c(=O)cc(OC)c4c5c(OC)cc(=O)c6c(NCCOC(=O)N7CC(=O)N(CCOCCOCCOCCOCCOCCOCCOC)C(=O)C7)c(OC)c7c(c(c2C=C(C)C7C(C)=O)c34)c65)CC1=O` (stereo not drawn) [HB-40b-PEG6], in series [1], the maximum absorption wavelength is given as 624 nm and the molar extinction coefficient was 31,000 M^−1cm^−1. Also, the singlet oxygen yield in series [2] came to 34%.

`COc1c(NCCOC(=O)N2CC(=O)NC(=O)C2)c2c(=O)cc(OC)c3c4c(OC)cc(=O)c5c(O)c(NCCOC(=O)N6CC(=O)NC(=O)C6)c6c(c(c1C(C(C)=O)C(C)=C6)c23)c54` (stereo not drawn) [HB-40b]: in series [1], the maximum absorption wavelength is on record as 624 nm and the molar extinction coefficient is 31,500 M^−1cm^−1. Also, in series [2], the singlet oxygen yield came to 34%.

In the case of `COc1c2c3c4c(c(NCCOC(=O)N5CC(=O)NC(=O)C5)c(=O)c5c(NCCOC(=O)N6CC(=O)NC(=O)C6)cc(OC)c(c6c(OC)cc(O)c(c1=O)c63)c54)C=C(C)C2C(C)=O` (stereo not drawn) [HB-40c], in series [1], the maximum absorption wavelength stood at 632 nm and the molar extinction coefficient was 34,000 M^−1cm^−1. The compound also had a singlet oxygen yield in series [2] of 40%.

Consider `COCCOCCOCCOCCOCCOCCOCCOCCOCCOCCOCCOCCOCCN1C(=O)CN(C(=O)OCCNc2c3c4c5c(c(OC)c(=O)c6c(NCCOC(=O)N7CC(=O)N(CCOCCOCCOCCOCCOCCOCCOCCOCCOCCOCCOCCOCCOC)C(=O)C7)cc(OC)c(c7c(OC)cc(O)c(c2=O)c74)c65)C(C(C)=O)C(C)=C3)CC1=O` (stereo not drawn) [HB-40d-PEG12], for which, in series [1], the maximum absorption wavelength was 628 nm and the molar extinction coefficient was 30,500 M^−1cm^−1. The compound also came in with a singlet oxygen yield in series [2] of 30%.

With `COc1c2c3c4c(c(NCCOC(=O)N5CC(=O)NC(=O)C5)c(=O)c5c(O)cc(OC)c(c6c(OC)cc(NCCOC(=O)N7CC(=O)NC(=O)C7)c(c1=O)c63)c54)C=C(C)C2C(C)=O` (stereo not drawn) [HB-40d], in series [1], the maximum absorption wavelength came out at 628 nm and the molar extinction coefficient was 31,500 M^−1cm^−1. The compound also came in with a singlet oxygen yield in series [2] of 30%.

With `COc1c(O)c2c(=O)cc(OC)c3c4c(OC)cc(=O)c5c(NCC[N+]67CC[N+](C)(CC6)CC7)c(NCC[N+]67CC[N+](C)(CC6)CC7)c6c(c(c1C(C(C)=O)C(C)=C6)c23)c54` (stereo not drawn) [HB-41a], in series [1], the maximum absorption wavelength is 622 nm and the molar extinction coefficient was 32,500 M^−1cm^−1. The singlet oxygen yield in series [2] came out at 31%.

For the compound `COc1c(NCC[N+]23CC[N+](C)(CC2)CC3)c2c(=O)cc(OC)c3c4c(OC)cc(=O)c5c(O)c(NCC[N+]67CC[N+](C)(CC6)CC7)c6c(c(c1C(C(C)=O)C(C)=C6)c23)c54` (stereo not drawn) [HB-41b], in series [1], the maximum absorption wavelength was 624 nm and the molar extinction coefficient is 31,500 M^−1cm^−1. In addition, the singlet oxygen yield in series [2] is given as 32%.

In the case of `COc1c2c3c4c(c(NCC[N+]56CC[N+](C)(CC5)CC6)c(=O)c5c(NCC[N+]67CC[N+](C)(CC6)CC7)cc(OC)c(c6c(OC)cc(O)c(c1=O)c63)c54)C=C(C)C2C(C)=O` (stereo not drawn) [HB-41c], in series [1], the maximum absorption wavelength worked out at 621 nm and the molar extinction coefficient is given as 33,500 M^−1cm^−1. For the same compound, in series [2], the singlet oxygen yield is given as 35%.

With `COc1c2c3c4c(c(NCC[N+]56CC[N+](C)(CC5)CC6)c(=O)c5c(O)cc(OC)c(c6c(OC)cc(NCC[N+]78CC[N+](C)(CC7)CC8)c(c1=O)c63)c54)C=C(C)C2C(C)=O` (stereo not drawn) [HB-41d], in series [1], the maximum absorption wavelength stood at 625 nm and the molar extinction coefficient is on record as 30,500 M^−1cm^−1. This compound also gave a singlet oxygen yield in series [2] of 28%.

In the case of `COc1c(O)c2c(=O)cc(OC)c3c4c(OC)cc(=O)c5c(NCCC(=O)NCCN6CCOCC6)c(NCCC(=O)NCCN6CCOCC6)c6c(c(c1C(C(C)=O)C(C)=C6)c23)c54` (stereo not drawn) [HB-42a], in series [1], the maximum absorption wavelength stood at 620 nm and the molar extinction coefficient is 32,500 M^−1cm^−1. The compound also yielded a singlet oxygen yield in series [2] of 33%.

In the case of `COc1c(O)c2c(=O)cc(OC)c3c4c(OC)cc(=O)c5c(NCCCC(=O)O)c(NCC(=O)O)c6c(c(c1C(C(C)=O)C(C)=C6)c23)c54` (stereo not drawn) [HB-43a], in series [1], the maximum absorption wavelength is reported as 613 nm and the molar extinction coefficient was 26,500 M^−1cm^−1. For the same compound, the singlet oxygen yield in series [2] was 28%.

With `COc1c(NCCCC(=O)O)c2c(=O)cc(OC)c3c4c(OC)cc(=O)c5c(O)c(NCC(=O)O)c6c(c(c1C(C(C)=O)C(C)=C6)c23)c54` (stereo not drawn) [HB-43b], in series [1], the maximum absorption wavelength amounted to 618 nm and the molar extinction coefficient is reported as 26,000 M^−1cm^−1. The same compound had a singlet oxygen yield in series [2] of 25%.

With `COc1c2c3c4c(c(NCC(=O)O)c(=O)c5c(NCCCC(=O)O)cc(OC)c(c6c(OC)cc(O)c(c1=O)c63)c54)C=C(C)C2C(C)=O` (stereo not drawn) [HB-43c], in series [1], the maximum absorption wavelength amounted to 626 nm and the molar extinction coefficient is recorded as 26,500 M^−1cm^−1. Also, the singlet oxygen yield in series [2] is on record as 30%.

As to `COc1c2c3c4c(c(NCC(=O)O)c(=O)c5c(O)cc(OC)c(c6c(OC)cc(NCCCC(=O)O)c(c1=O)c63)c54)C=C(C)C2C(C)=O` (stereo not drawn) [HB-43d], in series [1], the maximum absorption wavelength is listed as 623 nm and the molar extinction coefficient is 26,500 M^−1cm^−1. Also, the singlet oxygen yield in series [2] amounted to 24%.

Consider `CCNc1c(NC2CCCC2)c2c(=O)cc(OC)c3c4c(OC)cc(=O)c5c(O)c(OC)c6c(c(c1C=C(C)C6C(C)=O)c23)c54` (stereo not drawn) [HB-44a], for which, in series [1], the maximum absorption wavelength is 628 nm and the molar extinction coefficient is recorded as 21,500 M^−1cm^−1. Also, the singlet oxygen yield in series [2] was found to be 20%.

In the case of `CCNc1c(O)c2c(=O)cc(OC)c3c4c(OC)cc(=O)c5c(NC6CCCC6)c(OC)c6c(c(c1C=C(C)C6C(C)=O)c23)c54` (stereo not drawn) [HB-44b], in series [1], the maximum absorption wavelength came to 621 nm and the molar extinction coefficient is 21,000 M^−1cm^−1. For the same compound, the singlet oxygen yield in series [2] was 18%.

Take `CCNc1c2c3c4c(c(OC)c(=O)c5c(O)cc(OC)c(c6c(OC)cc(NC7CCCC7)c(c1=O)c63)c54)C(C(C)=O)C(C)=C2` (stereo not drawn) [HB-44c]: in series [1], the maximum absorption wavelength was determined as 624 nm and the molar extinction coefficient is given as 21,000 M^−1cm^−1. The compound also yielded a singlet oxygen yield in series [2] of 20%.

`CCNc1c2c3c4c(c(OC)c(=O)c5c(NC6CCCC6)cc(OC)c(c6c(OC)cc(O)c(c1=O)c63)c54)C(C(C)=O)C(C)=C2` (stereo not drawn) [HB-44d]: in series [1], the maximum absorption wavelength was found to be 622 nm and the molar extinction coefficient is reported as 21,500 M^−1cm^−1. This compound came in with a singlet oxygen yield in series [2] of 21%.

For `COCCOCCNc1c(NCCCC(=O)O)c2c3c4c(c(OC)c(O)c5c(=O)cc(OC)c(c6c(OC)cc(=O)c1c63)c54)C(C(C)=O)C(C)=C2` (stereo not drawn) [HB-47a-PEG1], in series [1], the maximum absorption wavelength is listed as 622 nm and the molar extinction coefficient was 30,500 M^−1cm^−1. The compound also had a singlet oxygen yield in series [2] of 30%.

With `COCCOCCC(=O)OCCOCCNc1c(NCCCC(=O)O)c2c(=O)cc(OC)c3c4c(OC)cc(=O)c5c(O)c(OC)c6c(c(c1C=C(C)C6C(C)=O)c23)c54` (stereo not drawn) [HB-48a-PEG1], in series [1], the maximum absorption wavelength is 628 nm and the molar extinction coefficient is recorded as 31,500 M^−1cm^−1. The same compound returned a singlet oxygen yield in series [2] of 32%.

`CCNc1c(NC2CCCC2)c2c(=O)c(SCCO)c(OC)c3c4c(OC)cc(=O)c5c(O)c(OC)c6c(c(c1C=C(C)C6C(C)=O)c23)c54` (stereo not drawn) [HB-S-44a]: in series [1], the maximum absorption wavelength was found to be 628 nm and the molar extinction coefficient was 21,500 M^−1cm^−1. In series [2], this compound displayed a singlet oxygen yield of 20%.

For the compound `CCNc1c(O)c2c(=O)c(SCCO)c(OC)c3c4c(OC)cc(=O)c5c(NC6CCCC6)c(OC)c6c(c(c1C=C(C)C6C(C)=O)c23)c54` (stereo not drawn) [HB-S-44b], in series [1], the maximum absorption wavelength came to 622 nm and the molar extinction coefficient was 21,000 M^−1cm^−1. This compound also registered a singlet oxygen yield in series [2] of 18%.

Turning to `CCNc1c2c3c4c(c(OC)c(=O)c5c(O)cc(OC)c(c6c(OC)c(SCCO)c(NC7CCCC7)c(c1=O)c36)c54)C(C(C)=O)C(C)=C2` (stereo not drawn) [HB-S-44c], in series [1], the maximum absorption wavelength is 628 nm and the molar extinction coefficient was 21,000 M^−1cm^−1. In series [2], this compound came in with a singlet oxygen yield of 20%.

As to `CCNc1c2c3c4c(c(OC)c(=O)c5c(NC6CCCC6)cc(OC)c(c6c(OC)c(SCCO)c(O)c(c1=O)c36)c54)C(C(C)=O)C(C)=C2` (stereo not drawn) [HB-S-44d], in series [1], the maximum absorption wavelength is 622 nm and the molar extinction coefficient is recorded as 21,500 M^−1cm^−1. Moreover, the singlet oxygen yield in series [2] came to 21%.

On to `COCCOCCC(=O)OCCOCCNc1c(NCCOCCOC(=O)CCOCCOC)c2c(=O)cc(OC)c3c4c(OC)cc(=O)c5c(O)c(OC)c6c(c(c1C=C(C)C6)c23)c54` [HC-1a-PEG1], for which, in series [1], the maximum absorption wavelength was 622 nm and the molar extinction coefficient was 30,500 M^−1cm^−1. The same compound had a singlet oxygen yield in series [2] of 32%.

As for `COc1c(O)c2c(=O)cc(OC)c3c4c(OC)cc(=O)c5c(NCCOCCO)c(NCCOCCO)c6c(c(c1CC(C)=C6)c23)c54` [HC-1a], in series [1], the maximum absorption wavelength turned out to be 628 nm and the molar extinction coefficient was 28,000 M^−1cm^−1. In series [2], the singlet oxygen yield worked out at 36%.

On to `COCCOCCOCCOCCOCCOCCOCCC(=O)OCCOCCNc1c(O)c2c(=O)cc(OC)c3c4c(OC)cc(=O)c5c(NCCOCCOC(=O)CCOCCOCCOCCOCCOCCOCCOC)c(OC)c6c(c(c1C=C(C)C6)c23)c54` [HC-1b-PEG6], for which, in series [1], the maximum absorption wavelength was found to be 624 nm and the molar extinction coefficient is recorded as 30,000 M^−1cm^−1. The compound also gave a singlet oxygen yield in series [2] of 30%.

For the compound `COc1c(NCCOCCO)c2c(=O)cc(OC)c3c4c(OC)cc(=O)c5c(O)c(NCCOCCO)c6c(c(c1CC(C)=C6)c23)c54` [HC-1b], in series [1], the maximum absorption wavelength stood at 624 nm and the molar extinction coefficient is on record as 27,000 M^−1cm^−1. In series [2], this compound registered a singlet oxygen yield of 33%.

For the compound `COCCOCCC(=O)OCCOCCNc1c2c3c4c(c(OC)c(=O)c5c(O)cc(OC)c(c6c(OC)cc(NCCOCCOC(=O)CCOCCOC)c(c1=O)c63)c54)CC(C)=C2` [HC-1c-PEG1], in series [1], the maximum absorption wavelength is on record as 625 nm and the molar extinction coefficient was 32,500 M^−1cm^−1. Further, the singlet oxygen yield in series [2] came to 34%.

For the origin of these results see patent publication US11439707B2, “Hypocrellin derivative substituted both in a peri-position and in 2-position by amino, preparation method, and application thereof” (priority 2017, dated 2022).
